Results from paper PMC12372887, “Mechanism and cellular actions of the potent AMPK inhibitor BAY-3827” (Science Advances, 2025).

Assays:
Test in all cases: Kinase panel (140 human kinases)
Format in all cases: biochemical
TLK1 = TLK1 (Homo sapiens, UniProt Q9UKI8)
Protocol: (§1) BAY-3827 and BAY-974 were assayed against a 140-human kinase panel at 0.1 μM and at 1 μM (BAY-3827) concentration in a [γ-^33P] ATP–based radioactive filter binding assay ([31], [65]) setup in duplicates with reported mean remaining kinase percentage activity alongside SD (table S1). Assays were performed at either 5, 20, or 50 μM ATP to be at or below the Michaelis constant for ATP for each enzyme and conducted by the services offered by the International Centre for Kinase Profiling at MRC Protein Phosphorylation and Ubiquitylation Unit, University of Dundee (https://www.kinase-screen.mrc.ac.uk/services/premier-screen).

PAK5 = PAK5 (Homo sapiens, UniProt Q9P286)
Protocol: as §1

ERK8 = ERK8 (Homo sapiens, UniProt Q8TD08)
Protocol: as §1

ABL = ABL (Homo sapiens, UniProt P00519)
Protocol: as §1

MELK = MELK (Homo sapiens, UniProt Q14680)
Protocol: as §1

IGF-1R = IGF-1R (Homo sapiens, UniProt P08069)
Protocol: as §1

MKK2 = MKK2 (Homo sapiens, UniProt P36507)
Protocol: as §1

PKCa = PKCa (Homo sapiens, UniProt P17252)
Protocol: as §1

IRAK4 = molecular target: T1, IRAK4 (Homo sapiens, UniProt Q9NWZ3)
T1 sequence (Q9NWZ3 1-460): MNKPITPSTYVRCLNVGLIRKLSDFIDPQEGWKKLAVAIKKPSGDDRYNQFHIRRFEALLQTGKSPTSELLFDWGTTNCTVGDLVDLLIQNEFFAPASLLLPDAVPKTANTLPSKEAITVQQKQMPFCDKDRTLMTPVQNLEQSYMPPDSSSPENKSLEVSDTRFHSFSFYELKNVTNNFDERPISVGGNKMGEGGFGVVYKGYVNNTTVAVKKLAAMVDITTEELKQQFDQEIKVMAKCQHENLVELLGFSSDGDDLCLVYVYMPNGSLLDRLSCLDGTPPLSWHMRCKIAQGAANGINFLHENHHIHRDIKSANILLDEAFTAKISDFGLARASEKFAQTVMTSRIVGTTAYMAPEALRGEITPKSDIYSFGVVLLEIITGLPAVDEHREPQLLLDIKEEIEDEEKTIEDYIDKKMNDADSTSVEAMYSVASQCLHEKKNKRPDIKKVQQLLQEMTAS
Protocol: as §1

CSK = CSK (Homo sapiens, UniProt P41240)
Protocol: as §1

PKCz = PKCz (Homo sapiens, UniProt Q05513)
Protocol: as §1

GSK3b = GSK3b (Homo sapiens, UniProt P49841)
Protocol: as §1

PHK = settings: 0.1 μM
Protocol: as §1

PKBa = PKBa (Homo sapiens, UniProt P31749)
Protocol: as §1

EPH-A4 = EPH-A4 (Homo sapiens, UniProt P54764)
Protocol: as §1

RSK2 = RSK2 (Homo sapiens, UniProt P51812)
Protocol: as §1

EPH-B1 = EPH-B1 (Homo sapiens, UniProt P54762)
Protocol: as §1

MINK1 = MINK1 (Homo sapiens, UniProt Q8N4C8)
Protocol: as §1

CK1γ2 = CK1γ2 (Homo sapiens, UniProt P78368)
Protocol: as §1

FGF-R1 = FGF-R1 (Homo sapiens, UniProt P11362)
Protocol: as §1

ROCK 2 = ROCK 2 (Homo sapiens, UniProt O75116)
Protocol: as §1

PDK1 = PDK1 (Homo sapiens, UniProt O15530)
Protocol: as §1

RSK1 = RSK1 (Homo sapiens, UniProt Q15418)
Protocol: as §1

Lck = Lck (Homo sapiens, UniProt P06239)
Protocol: as §1

MST3 = MST3 (Homo sapiens, UniProt Q9Y6E0)
Protocol: as §1

PKD1 = PKD1 (Homo sapiens, UniProt Q15139)
Protocol: as §1

PLK1 = PLK1 (Homo sapiens, UniProt P53350)
Protocol: as §1

DAPK1 = DAPK1 (Homo sapiens, UniProt P53355)
Protocol: as §1

HIPK1 = HIPK1 (Homo sapiens, UniProt Q86Z02)
Protocol: as §1

PIM2 = PIM2 (Homo sapiens, UniProt Q9P1W9)
Protocol: as §1

VEG-FR = settings: 0.1 μM
Protocol: as §1

PIM1 = PIM1 (Homo sapiens, UniProt P11309)
Protocol: as §1

[1] = 1 μM, cross-referenced with screen data of ref 37, read-out: activity remaining after treatment

Sequence of ABL (P00519 whole entry): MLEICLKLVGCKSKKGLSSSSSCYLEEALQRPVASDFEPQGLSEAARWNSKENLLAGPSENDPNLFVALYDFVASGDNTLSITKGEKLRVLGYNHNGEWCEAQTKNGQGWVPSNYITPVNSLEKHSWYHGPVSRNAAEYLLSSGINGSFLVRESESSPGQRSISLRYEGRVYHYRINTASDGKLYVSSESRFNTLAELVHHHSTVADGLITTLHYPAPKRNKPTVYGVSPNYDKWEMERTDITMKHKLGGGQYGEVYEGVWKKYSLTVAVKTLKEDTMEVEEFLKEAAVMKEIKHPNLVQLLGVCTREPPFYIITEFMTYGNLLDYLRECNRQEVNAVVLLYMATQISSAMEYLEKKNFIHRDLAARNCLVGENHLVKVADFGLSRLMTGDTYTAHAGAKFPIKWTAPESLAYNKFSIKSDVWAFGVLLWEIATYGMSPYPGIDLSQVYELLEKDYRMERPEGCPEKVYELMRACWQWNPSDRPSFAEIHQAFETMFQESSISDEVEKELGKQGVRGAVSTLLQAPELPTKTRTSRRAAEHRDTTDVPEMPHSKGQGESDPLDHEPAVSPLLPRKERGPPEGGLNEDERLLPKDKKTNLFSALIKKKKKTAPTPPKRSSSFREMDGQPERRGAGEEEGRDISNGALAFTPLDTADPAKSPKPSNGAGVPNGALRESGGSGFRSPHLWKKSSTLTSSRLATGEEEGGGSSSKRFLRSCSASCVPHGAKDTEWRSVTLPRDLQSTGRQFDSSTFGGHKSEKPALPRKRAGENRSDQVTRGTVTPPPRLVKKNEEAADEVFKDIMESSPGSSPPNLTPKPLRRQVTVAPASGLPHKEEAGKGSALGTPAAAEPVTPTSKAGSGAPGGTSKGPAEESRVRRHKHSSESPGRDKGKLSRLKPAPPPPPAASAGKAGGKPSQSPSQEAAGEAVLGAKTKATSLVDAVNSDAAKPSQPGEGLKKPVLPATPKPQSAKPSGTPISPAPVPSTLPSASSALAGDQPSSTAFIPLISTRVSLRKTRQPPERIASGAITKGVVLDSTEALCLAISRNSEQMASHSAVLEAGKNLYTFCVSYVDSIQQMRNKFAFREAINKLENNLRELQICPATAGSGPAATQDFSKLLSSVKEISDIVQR
Sequence of PIM2 (Q9P1W9 whole entry): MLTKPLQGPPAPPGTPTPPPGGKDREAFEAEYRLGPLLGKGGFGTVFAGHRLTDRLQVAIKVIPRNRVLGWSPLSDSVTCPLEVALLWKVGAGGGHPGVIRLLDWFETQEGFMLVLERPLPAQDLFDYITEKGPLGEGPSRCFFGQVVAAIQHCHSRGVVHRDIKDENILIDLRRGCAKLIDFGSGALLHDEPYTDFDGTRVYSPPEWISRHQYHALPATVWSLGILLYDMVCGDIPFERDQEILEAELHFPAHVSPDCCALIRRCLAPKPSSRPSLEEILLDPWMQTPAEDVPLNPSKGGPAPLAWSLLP
Sequence of RSK1 (Q15418 whole entry): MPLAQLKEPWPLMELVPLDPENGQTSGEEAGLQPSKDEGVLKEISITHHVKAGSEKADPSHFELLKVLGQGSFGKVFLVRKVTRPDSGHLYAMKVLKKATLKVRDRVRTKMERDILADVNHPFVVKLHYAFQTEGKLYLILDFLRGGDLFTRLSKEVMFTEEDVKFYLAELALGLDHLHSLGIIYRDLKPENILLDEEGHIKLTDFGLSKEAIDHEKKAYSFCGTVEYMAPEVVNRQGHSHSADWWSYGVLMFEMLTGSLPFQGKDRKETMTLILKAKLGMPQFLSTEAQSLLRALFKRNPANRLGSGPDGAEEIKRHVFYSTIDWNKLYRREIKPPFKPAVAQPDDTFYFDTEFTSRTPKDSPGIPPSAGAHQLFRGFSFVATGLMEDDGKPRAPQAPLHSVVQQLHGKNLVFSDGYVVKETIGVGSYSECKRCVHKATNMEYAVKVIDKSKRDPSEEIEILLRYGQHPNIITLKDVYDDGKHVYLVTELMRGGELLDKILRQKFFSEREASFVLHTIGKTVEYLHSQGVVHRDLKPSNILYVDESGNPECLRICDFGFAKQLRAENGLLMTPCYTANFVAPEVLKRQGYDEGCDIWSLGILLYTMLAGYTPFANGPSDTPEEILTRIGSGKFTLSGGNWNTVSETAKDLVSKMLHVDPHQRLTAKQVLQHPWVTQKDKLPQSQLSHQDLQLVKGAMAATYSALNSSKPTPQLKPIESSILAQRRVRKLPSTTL
Sequence of MINK1 (Q8N4C8 whole entry): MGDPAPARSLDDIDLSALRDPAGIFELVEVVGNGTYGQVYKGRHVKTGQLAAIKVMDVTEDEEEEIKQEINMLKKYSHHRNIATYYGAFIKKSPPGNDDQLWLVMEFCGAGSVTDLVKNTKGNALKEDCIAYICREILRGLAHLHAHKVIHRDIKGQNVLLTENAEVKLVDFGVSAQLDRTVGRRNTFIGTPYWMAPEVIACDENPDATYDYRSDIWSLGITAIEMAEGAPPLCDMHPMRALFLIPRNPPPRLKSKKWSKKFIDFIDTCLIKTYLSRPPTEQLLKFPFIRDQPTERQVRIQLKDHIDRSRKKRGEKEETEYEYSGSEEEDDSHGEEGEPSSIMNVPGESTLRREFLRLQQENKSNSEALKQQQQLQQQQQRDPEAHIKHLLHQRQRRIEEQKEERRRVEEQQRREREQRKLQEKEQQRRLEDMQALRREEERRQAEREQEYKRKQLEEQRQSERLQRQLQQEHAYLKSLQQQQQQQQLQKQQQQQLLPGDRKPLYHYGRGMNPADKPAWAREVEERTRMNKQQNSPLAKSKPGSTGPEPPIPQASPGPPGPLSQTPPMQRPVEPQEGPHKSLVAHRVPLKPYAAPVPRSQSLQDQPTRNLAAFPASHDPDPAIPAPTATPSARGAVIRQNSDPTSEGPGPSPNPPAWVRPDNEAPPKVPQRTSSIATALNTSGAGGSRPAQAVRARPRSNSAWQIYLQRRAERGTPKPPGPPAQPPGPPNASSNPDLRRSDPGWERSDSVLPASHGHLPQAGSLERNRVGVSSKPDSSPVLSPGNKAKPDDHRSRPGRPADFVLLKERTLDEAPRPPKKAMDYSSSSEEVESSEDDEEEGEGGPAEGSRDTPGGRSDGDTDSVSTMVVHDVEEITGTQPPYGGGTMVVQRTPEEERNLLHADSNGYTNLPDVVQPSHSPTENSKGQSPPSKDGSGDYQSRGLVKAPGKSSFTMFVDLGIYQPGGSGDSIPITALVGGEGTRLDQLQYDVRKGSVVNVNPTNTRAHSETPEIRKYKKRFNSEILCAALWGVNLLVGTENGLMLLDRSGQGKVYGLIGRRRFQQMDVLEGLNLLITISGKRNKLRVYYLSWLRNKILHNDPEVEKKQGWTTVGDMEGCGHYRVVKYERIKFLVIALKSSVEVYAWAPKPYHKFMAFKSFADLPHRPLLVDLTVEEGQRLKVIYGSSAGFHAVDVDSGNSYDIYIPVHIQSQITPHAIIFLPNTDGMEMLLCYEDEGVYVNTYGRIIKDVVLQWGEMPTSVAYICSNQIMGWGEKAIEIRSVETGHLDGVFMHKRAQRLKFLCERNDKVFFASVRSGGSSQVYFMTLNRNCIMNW
Sequence of RSK2 (P51812 whole entry): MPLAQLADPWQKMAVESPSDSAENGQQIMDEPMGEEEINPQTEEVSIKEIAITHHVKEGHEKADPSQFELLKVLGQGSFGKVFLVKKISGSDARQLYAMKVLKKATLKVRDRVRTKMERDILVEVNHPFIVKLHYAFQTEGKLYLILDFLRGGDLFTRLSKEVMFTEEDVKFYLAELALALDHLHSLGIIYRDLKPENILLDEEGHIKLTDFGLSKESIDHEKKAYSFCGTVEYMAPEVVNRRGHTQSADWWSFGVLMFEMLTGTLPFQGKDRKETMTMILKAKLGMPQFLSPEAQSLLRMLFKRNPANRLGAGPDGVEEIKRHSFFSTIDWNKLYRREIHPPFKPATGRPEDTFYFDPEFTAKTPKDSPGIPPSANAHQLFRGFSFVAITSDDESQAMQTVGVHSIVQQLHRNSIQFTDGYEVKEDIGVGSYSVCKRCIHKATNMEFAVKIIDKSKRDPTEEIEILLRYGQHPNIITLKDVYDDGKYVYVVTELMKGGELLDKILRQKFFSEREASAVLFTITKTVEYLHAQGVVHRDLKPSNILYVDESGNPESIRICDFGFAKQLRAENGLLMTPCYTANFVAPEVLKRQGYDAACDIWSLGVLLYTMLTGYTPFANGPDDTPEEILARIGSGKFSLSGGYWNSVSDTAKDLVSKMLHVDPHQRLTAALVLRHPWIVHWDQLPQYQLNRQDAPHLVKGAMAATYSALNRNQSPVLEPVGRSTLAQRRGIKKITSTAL
Sequence of MELK (Q14680 whole entry): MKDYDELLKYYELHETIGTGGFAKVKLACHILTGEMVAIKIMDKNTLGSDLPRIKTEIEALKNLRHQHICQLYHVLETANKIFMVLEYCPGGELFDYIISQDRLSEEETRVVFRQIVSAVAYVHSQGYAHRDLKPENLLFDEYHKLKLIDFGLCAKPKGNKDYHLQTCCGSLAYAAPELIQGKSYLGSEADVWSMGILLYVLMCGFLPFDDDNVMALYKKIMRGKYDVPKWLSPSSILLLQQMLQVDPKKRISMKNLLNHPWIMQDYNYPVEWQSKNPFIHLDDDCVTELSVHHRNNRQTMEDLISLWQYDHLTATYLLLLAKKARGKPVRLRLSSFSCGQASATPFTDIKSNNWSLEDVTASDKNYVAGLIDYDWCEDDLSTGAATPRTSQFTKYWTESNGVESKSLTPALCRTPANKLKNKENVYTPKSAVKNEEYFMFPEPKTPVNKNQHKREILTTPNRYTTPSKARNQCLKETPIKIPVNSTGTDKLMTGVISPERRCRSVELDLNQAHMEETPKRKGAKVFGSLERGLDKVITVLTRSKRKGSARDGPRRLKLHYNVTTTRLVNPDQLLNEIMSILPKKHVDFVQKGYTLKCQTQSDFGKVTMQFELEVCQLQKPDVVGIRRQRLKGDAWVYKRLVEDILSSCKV

CC1=C(C#N)C(c2ccc3c(c2)c(NC(=O)c2ccccc2C)nn3C)C(C#N)=C(C)N1 [BAY-974, N-[5-(3,5-dicyano-2,6-dimethyl-1,4-dihydropyridin-4-yl)-1-methylindazol-3-yl]-2-methylbenzamide]
remaining activity at 0.1 µM (TLK1): 100%
remaining activity at 0.1 µM (PAK5): 82%
remaining activity at 0.1 µM (ERK8): 91%
remaining activity at 0.1 µM (ABL): 59%
remaining activity at 0.1 µM (MELK): 90%
remaining activity at 0.1 µM (IGF-1R): 147%
remaining activity at 0.1 µM (MKK2): 95%
remaining activity at 0.1 µM (PKCa): 110%
remaining activity at 0.1 µM (IRAK4): 92%
remaining activity at 0.1 µM (CSK): 123%
remaining activity at 0.1 µM (PKCz): 103%
remaining activity at 0.1 µM (GSK3b): 93%
Kinase activity remaining (%) (PHK): 120%
remaining activity at 0.1 µM (PKBa): 95%
remaining activity at 0.1 µM (EPH-A4): 81%
remaining activity at 0.1 µM (RSK2): 117%
remaining activity at 0.1 µM (EPH-B1): 107%
remaining activity at 0.1 µM (MINK1): 79%
remaining activity at 0.1 µM (CK1γ2): 112%
remaining activity at 0.1 µM (FGF-R1): 91%
remaining activity at 0.1 µM (ROCK 2): 98%
remaining activity at 0.1 µM (PDK1): 85%
remaining activity at 0.1 µM (RSK1; 0.1 μM): 66%
remaining activity at 0.1 µM (Lck): 58%
remaining activity at 0.1 µM (MST3): 89%
remaining activity at 0.1 µM (PKD1): 84%
remaining activity at 0.1 µM (PLK1): 105%
remaining activity at 0.1 µM (DAPK1): 109%
remaining activity at 0.1 µM (HIPK1): 91%
remaining activity at 0.1 µM (PIM2): 113%
Kinase activity remaining (%) (VEG-FR): 95%
remaining activity at 0.1 µM (PIM1): 82%

CCc1ccccc1C(=O)Nc1n[nH]c2c(C)c(F)c(C3C(C#N)=C(C)N(C)C(C)=C3C#N)cc12 [BAY-3827, N-[5-(3,5-dicyano-1,2,6-trimethyl-4H-pyridin-4-yl)-6-fluoro-7-methyl-1H-indazol-3-yl]-2-ethylbenzamide]
remaining activity at 0.1 µM (TLK1): 118%
remaining activity at 0.1 µM (PAK5): 100%
remaining activity at 0.1 µM (ERK8): 66%
remaining activity at 0.1 µM (ABL): 107%
remaining activity at 1 µM (ABL; 1 μM, ABL1, cross-referenced with screen data of ref 37, read-out: activity remaining after treatment): ≥ 99%
remaining activity at 0.1 µM (MELK): 81%
remaining activity at 1 µM (MELK; [1]): ≤ 50%
remaining activity at 0.1 µM (IGF-1R): 67%
remaining activity at 0.1 µM (MKK2): 97%
remaining activity at 0.1 µM (PKCa): 90%
remaining activity at 0.1 µM (IRAK4): 111%
remaining activity at 1 µM (IRAK4; [1]): ≥ 99%
remaining activity at 0.1 µM (CSK): 79%
remaining activity at 0.1 µM (PKCz): 112%
remaining activity at 0.1 µM (GSK3b): 74%
inhibition of kinase (PHK): 80 to 85%
remaining activity at 0.1 µM (PKBa): 95%
remaining activity at 0.1 µM (EPH-A4): 94%
remaining activity at 0.1 µM (RSK2): 90%
remaining activity at 1 µM (RSK2; [1]): ≤ 50%
remaining activity at 0.1 µM (EPH-B1): 91%
inhibition at 0.1 µM (MINK1): ~60%
remaining activity at 0.1 µM (MINK1): ≤ 50%
remaining activity at 0.1 µM (CK1γ2): 95%
remaining activity at 0.1 µM (FGF-R1): 89%
remaining activity at 0.1 µM (ROCK 2): 83%
remaining activity at 0.1 µM (PDK1): 83%
inhibition at 0.1 µM (RSK1; 0.1 μM): 80 to 85%
remaining activity at 1 µM (RSK1; [1]): ≤ 50%
remaining activity at 0.1 µM (Lck): 93%
remaining activity at 0.1 µM (MST3): ≤ 50%
remaining activity at 0.1 µM (PKD1): 100%
remaining activity at 0.1 µM (PLK1): 97%
remaining activity at 0.1 µM (DAPK1): 94%
remaining activity at 0.1 µM (HIPK1): 94%
remaining activity at 0.1 µM (PIM2): 112%
remaining activity at 1 µM (PIM2; [1]): ≥ 99%
Kinase activity remaining (%) (VEG-FR): 89%
remaining activity at 0.1 µM (PIM1): 86%
